# Test results reported in US10221139B2, “Inhibitors of histone demethylases” (Gilead Sciences, Inc., priority 2012, dated 2019).
# Key:
# GASC1 (KDM4C, JMJD2C) = target: T1, GASC1 (KDM4C, JMJD2C) (Homo sapiens, UniProt Q9H3R0); assay: Histone lysine demethylase AlphaLISA assay, GASC1; type: biochemical; conditions: substrate BK9M3
# T1 construct: 1-349; host or cells: E. coli
# T1 sequence (Q9H3R0 1-349): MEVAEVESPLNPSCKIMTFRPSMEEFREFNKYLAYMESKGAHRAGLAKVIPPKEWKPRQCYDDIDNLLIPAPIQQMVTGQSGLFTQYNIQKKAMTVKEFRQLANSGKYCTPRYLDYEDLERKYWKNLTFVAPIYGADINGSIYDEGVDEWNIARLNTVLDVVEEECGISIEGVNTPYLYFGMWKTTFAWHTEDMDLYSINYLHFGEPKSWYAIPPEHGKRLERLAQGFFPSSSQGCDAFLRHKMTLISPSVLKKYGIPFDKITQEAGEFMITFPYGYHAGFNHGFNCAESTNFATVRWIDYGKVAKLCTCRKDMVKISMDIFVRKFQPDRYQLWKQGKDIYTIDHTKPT
# Procedure, shortened: (§1)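 Enzyme was preincubated 10 min, then 10 min with compounds in 3% DMSO buffer before substrate addition; reaction ran at room temperature. AlphaLISA acceptor beads (60 min, dark) and streptavidin donor beads were added before reading for IC50.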
# FBXL10 (KDM2B) = target: T2, FBXL10 (KDM2B) (Homo sapiens, UniProt Q8NHM5); assay: Histone lysine demethylase AlphaLISA assay, FBXL10; type: biochemical; conditions: substrate BH3K36M2
# T2 construct: 1-650; purchased BPS, Bioscience, US; host or cells: Bac (baculovirus)
# T2 sequence (Q8NHM5 1-650): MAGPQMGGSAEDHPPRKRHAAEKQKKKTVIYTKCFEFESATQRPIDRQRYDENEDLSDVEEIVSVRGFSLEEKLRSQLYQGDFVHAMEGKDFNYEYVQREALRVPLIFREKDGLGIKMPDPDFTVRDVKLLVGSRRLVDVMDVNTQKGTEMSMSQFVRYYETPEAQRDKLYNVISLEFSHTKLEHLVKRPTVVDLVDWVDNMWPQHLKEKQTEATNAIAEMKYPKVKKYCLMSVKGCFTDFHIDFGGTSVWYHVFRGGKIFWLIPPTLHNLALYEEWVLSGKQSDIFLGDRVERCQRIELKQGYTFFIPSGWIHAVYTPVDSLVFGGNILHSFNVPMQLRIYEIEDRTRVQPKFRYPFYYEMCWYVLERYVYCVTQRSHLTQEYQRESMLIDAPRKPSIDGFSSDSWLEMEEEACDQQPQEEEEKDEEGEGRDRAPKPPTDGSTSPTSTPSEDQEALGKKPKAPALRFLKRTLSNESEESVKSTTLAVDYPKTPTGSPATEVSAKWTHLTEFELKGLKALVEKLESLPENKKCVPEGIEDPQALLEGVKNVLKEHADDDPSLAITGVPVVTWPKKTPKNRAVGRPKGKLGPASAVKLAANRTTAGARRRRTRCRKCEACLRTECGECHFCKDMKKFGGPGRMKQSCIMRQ
# Experimental: Example 2: Histone Lysine Demethylase AlphaLISA Assays for IC50 Value Determination
# Assays are performed analogously to the protocol described by Perkin Elmer (Roy et al. Perkin Elmer Technical Note: AlphaLISA #12, April 2011).
# Enzymes are dissolved in enzyme buffer and incubated for 10 min before 5 μL is added to 5 μL 3% DMSO solutions of compounds in enzyme buffer. Incubated for another 10 minutes, before 5 μL substrate solution is added and the reaction mixture is incubated at room temperature for the given period. 10 μL acceptor beads, suspended at given dilutions in Epigenetic Buffer (Perkin Elmer AL008) from stock, are added and the suspension is incubated 60 minutes in the dark at room temperature, before 10 μL suspension (at the given dilutions in Epigenetic Buffer) of streptavidin donor beads (Perkin Elmer 6760002) in Epigenetic Buffer is added. After incubation at room temperature in the dark the plates are read. Reaction conditions are seen in Table 2b.
# PLU1 (KDM5B) [1] = target: T3, PLU1 (KDM5B) (Homo sapiens, UniProt Q9UGL1); assay: Histone lysine demethylase AlphaLISA assay, PLU1; type: biochemical; conditions: substrate H3K4M3B
# T3 construct: 1-809; host or cells: E. coli
# T3 sequence (Q9UGL1 1-809): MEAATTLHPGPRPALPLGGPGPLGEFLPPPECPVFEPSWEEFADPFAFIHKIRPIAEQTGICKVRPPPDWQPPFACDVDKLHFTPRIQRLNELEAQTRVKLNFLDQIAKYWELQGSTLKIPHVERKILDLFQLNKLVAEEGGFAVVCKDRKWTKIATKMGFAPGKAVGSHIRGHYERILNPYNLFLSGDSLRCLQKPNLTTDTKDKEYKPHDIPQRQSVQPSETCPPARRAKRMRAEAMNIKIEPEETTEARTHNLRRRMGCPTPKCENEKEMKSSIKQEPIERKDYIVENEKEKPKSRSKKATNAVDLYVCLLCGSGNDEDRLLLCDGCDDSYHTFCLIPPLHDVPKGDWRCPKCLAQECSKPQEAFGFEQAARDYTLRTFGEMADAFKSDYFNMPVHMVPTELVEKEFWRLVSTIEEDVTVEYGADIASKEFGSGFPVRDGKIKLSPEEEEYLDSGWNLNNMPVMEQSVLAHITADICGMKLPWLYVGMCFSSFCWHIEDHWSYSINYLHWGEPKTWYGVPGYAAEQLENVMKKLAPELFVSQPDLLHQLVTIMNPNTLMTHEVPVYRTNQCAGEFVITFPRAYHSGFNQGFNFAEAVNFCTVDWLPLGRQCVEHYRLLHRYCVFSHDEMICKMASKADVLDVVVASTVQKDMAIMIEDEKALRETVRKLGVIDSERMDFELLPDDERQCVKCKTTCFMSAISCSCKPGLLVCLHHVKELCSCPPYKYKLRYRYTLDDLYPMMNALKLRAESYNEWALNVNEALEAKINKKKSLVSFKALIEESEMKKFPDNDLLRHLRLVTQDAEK
# Procedure, shortened: as §1
# GASC1 (KDM4C) = target: T4, GASC1 (KDM4C) (Homo sapiens, UniProt Q9H3R0); assay: Immunofluorescence assay in U2OS cells transfected with pCMVHA JMJD2C (H3K9me3 mark); type: cell-based; conditions: 20 hours
# T4 construct: Full length; host or cells: U2OS
# T4 sequence (Q9H3R0 1-1056): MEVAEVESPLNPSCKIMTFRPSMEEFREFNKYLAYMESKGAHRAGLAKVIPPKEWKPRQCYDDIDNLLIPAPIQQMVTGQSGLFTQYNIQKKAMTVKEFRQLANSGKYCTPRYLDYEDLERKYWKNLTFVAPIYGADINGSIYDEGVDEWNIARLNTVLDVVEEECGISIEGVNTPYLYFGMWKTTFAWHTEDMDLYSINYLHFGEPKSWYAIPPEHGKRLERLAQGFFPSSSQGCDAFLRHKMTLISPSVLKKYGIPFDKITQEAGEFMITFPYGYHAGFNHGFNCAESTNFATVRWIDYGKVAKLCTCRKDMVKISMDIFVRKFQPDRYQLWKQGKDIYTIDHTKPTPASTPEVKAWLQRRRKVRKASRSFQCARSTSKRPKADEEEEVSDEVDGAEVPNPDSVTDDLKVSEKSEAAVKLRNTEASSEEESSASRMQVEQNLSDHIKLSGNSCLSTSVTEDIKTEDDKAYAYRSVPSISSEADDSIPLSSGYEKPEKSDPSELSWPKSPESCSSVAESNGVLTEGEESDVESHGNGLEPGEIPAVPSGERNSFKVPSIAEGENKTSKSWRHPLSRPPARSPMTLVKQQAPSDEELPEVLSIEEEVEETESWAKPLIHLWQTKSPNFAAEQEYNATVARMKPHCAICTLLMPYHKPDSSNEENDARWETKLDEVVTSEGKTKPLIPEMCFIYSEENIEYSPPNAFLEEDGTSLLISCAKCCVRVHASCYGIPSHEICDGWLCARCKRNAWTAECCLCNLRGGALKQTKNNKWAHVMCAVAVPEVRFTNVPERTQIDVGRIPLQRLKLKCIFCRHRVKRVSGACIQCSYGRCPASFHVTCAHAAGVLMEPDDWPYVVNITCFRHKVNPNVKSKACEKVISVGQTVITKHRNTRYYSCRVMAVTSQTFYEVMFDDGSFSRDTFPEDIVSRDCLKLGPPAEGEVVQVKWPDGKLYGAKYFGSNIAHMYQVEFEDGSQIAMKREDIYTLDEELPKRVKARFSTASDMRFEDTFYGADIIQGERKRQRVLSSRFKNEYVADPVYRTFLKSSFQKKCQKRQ
# Experimental: (§2) U2OS cells were seeded 24 hours before transfection. Transfection was performed with Fugene HD transfection reagent as recommended by the manufacturer. 6 hours after transfection, the cells were harvested and seeded into multi well plates into media containing compound. The media used was DMEM containing 5% FBS and pen/strep. 20 hours after incubation of cells with compounds, the cells were washed once in PBS, harvested by fixation with formaldehyde 4% aqueous solution, and washed 2 times in PBS. Subsequently, the cells were permeabilized in PBS with 0.2% Triton X-100 for 10 min at room temperature. Blocking was performed in PBS with 0.2% Triton X-100 and 5% FBS for 45 min at room temperature. The cells were incubated with primary antibodies diluted 1 μg/ml in blocking solution over night at 4° C. The primary antibodies used in the assays were HA.11 (Covance, MMS-101P) and the antibody detecting the mark specified in the Table 6 below. After incubation with primary antibodies, the cells were washed 3 times with PBS, incubated with secondary antibodies diluted 1:1000 (Alexa fluor 594 goat anti rabbit IgG, Invitrogen, A11012; Alexa flour 488 donkey anti mouse IgG, Invitrogen, A21202) and Hoechst, 20 μg/ml (Sigma, 33342) in blocking solution, and washed again 3 times with PBS. Finally, PBS was added and high throughput imaging and analysis were performed by an IN Cell Analyzer 1000 (GE Healthcare). The robot software analyzed individual cells and divided these into HA^+ (transfected cells) and HA^− (non-transfected cells). The IC50 values in Table 7 below were based on an average measure of the staining of the mark specified in the Table 6 below in the transfected cells.
# PLU1 (KDM5B) [2] = target: T5, PLU1 (KDM5B) (Homo sapiens, UniProt Q9UGL1); assay: Immunofluorescence assay in U2OS cells transfected with pCMVHA PLU1 (H3K4me2 mark); type: cell-based; conditions: 20 hours
# T5 construct: (1-752); host or cells: U2OS
# T5 sequence (Q9UGL1 1-752): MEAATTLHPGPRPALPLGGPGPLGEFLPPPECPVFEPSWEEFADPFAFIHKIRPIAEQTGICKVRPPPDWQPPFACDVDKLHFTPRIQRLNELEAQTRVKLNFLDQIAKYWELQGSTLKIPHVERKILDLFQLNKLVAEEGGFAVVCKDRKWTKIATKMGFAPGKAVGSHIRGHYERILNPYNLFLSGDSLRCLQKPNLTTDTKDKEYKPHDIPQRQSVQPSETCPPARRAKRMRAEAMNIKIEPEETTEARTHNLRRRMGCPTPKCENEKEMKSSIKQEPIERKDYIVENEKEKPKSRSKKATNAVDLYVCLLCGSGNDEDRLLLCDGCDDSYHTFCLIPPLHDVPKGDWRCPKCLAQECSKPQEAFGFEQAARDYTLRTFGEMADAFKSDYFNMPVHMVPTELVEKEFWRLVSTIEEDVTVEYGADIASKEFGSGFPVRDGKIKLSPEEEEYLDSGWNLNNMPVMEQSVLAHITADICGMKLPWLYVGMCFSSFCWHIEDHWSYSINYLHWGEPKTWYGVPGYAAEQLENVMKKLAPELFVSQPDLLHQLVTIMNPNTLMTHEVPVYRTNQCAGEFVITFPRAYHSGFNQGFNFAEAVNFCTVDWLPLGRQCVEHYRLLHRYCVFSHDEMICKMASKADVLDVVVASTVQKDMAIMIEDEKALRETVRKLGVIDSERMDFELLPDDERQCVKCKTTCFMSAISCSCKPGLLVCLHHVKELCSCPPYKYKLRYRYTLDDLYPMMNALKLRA
# Experimental: as §2
Compound,"IC50 (GASC1 (KDM4C, JMJD2C)) [nM]",IC50 (FBXL10 (KDM2B)) [nM],IC50 (PLU1 (KDM5B) [1]) [nM],IC50 (GASC1 (KDM4C)) [µM],IC50 (PLU1 (KDM5B) [2]) [µM]
"CCN(CC(=O)N1CCCCC1)Cc1cc(C(=O)O)ccn1 [#81, 2-({ethyl[2-oxo-2-(piperidin-1-yl)ethyl]amino}methyl)pyridine-4-carboxylic acid]",100 to 1000,100 to 1000,100 to 1000,,
"CCN(CCN(C)C)C(=O)CNCc1cc(C(=O)N2CCOC2=O)ccn1 [#72, N-[2-(dimethylamino)ethyl]-N-ethyl-2-({[4-(2-oxo-1,3-oxazolidine-3-carbonyl)pyridin-2-yl]methyl}amino)acetamide]",< 100,≥ 1000,< 100,,
"CCN(CCN(C)C)C(=O)CNCc1cc(C(=O)OCC(F)(F)F)ccn1 [#80, 2,2,2-trifluoroethyl 2-{[({[2-(dimethylamino)ethyl](ethyl)carbamoyl}methyl)amino]methyl}pyridine-4-carboxylate]",< 100,≥ 1000,< 100,,
"O=C(CNCc1cc(C(=O)O)ccn1)NC1CCN(Cc2ccco2)CC1 [drawing 318, 2-{[({[1-(furan-2-ylmethyl)piperidin-4-yl]carbamoyl}methyl)amino]methyl}pyridine-4-carboxylic acid]",,,,> 50,> 50
"CCN(CC)CCCCNCc1cc(C(=O)OCCCN(C)C)ccn1 [drawing 332, 3-(dimethylamino) propyl 2-({[4-(diethylamino)butyl]amino}methyl)pyridine-4-carboxylate]",,,,1 to 50,1 to 50
"O=C(O)c1ccnc(CNCCCNCCCN2CCCC2)c1 [drawing 310, 2-{[(3-{[3-(pyrrolidin-1-yl)propyl]amino}propyl)amino]methyl}pyridine-4-carboxylic acid]",,,,> 50,> 50
"CN(CCCNCc1cc(C(=O)O)ccn1)Cc1ccccc1F [drawing 322, 2-{[(3-{[(2-fluorophenyl)methyl](methyl)amino}propyl)amino]methyl}pyridine-4-carboxylic acid]",,,,> 50,1 to 50
CN(C)CCCCNCc1cc(C(=O)O)ccn1 [2-({[4-(dimethylamino)butyl]amino}methyl)pyridine-4-carboxylic acid],,,,> 50,1 to 50
